According to patent publication US20250011295A1, “USE OF 3-ARYLPHTHALIDES AND DERIVATIVES THEREOF AS ANTI-INFLAMMATORY AGENTS” (UNIVERSIDAD DE CÁDIZ, priority 2021, published 2025):

Assays:
Assay type in all cases: cell-based
[1] = test system: pancreatic beta cells, INS-1; assay: Nitrite production inhibition (Greiss colorimetric technique) in cytokine-stimulated INS-1 cells; conditions: for % of reduction in nitrite production: cytokine cocktail 10 ng·mL^−1, compound 10 μM; for Nitrite production, LPS or cytokines + Compound (10 μM): cytokine cocktail (TNFα, IL1β, IFNγ, TFGβ) 10 ng·mL^−1, compound 10 μM, baseline = 1
Protocol: (§1) Anti-inflammatory activity was measured on Bv.2 microglial cell line (innate immune system of the central nervous system), macrophages, Raw 264.7 cell line (peripheral immune system), renal tubular cell lines, MCT (renal tubule epithelials) and pancreatic beta cells, INS-1 (insulin-producing cells targeted in the process leading to diabetes mellitus). […] The activation of the inflammatory process induces the secretion of nitrites (NO2) into the medium, so the induction and modulation of the inflammatory response by 3-(4,5-dihydroxy-2-(2-ethylthio)ethylphenyl)phthalide and 3-(2,4-dihydroxyphenyl)phthalide can be determined by means of the Greiss colorimetric technique.
(§2) Tables 1 and 2 show the results of the nitrite production inhibitory activity caused by compounds II and III (10 μM), respectively, on LPS-stimulated Bv2 and Raw264.7 cell lines and on cytokine-stimulated MCT and INS-1 cell lines.

[2] = test system: Bv.2, Raw 264.7, MCT and INS-1 cell lines; assay: Cytotoxic effect in treated cell lines; conditions: any of the treated cell lines
[3] = test system: macrophages, Raw 264.7 cell line; assay: Nitrite production inhibition (Greiss colorimetric technique) in LPS-stimulated Raw 264.7 cells; conditions: LPS 2 μg·mL^−1, compound 10 μM; for Nitrite production, LPS or cytokines + Compound (10 μM): baseline = 1.00
Protocol: as §1, §2

[4] = test system: renal tubular cell lines, MCT; assay: Nitrite production inhibition (Greiss colorimetric technique) in cytokine-stimulated MCT cells; conditions: for % of reduction in nitrite production: cytokine cocktail 10 ng·mL^−1, compound 10 μM; for Nitrite production, LPS or cytokines + Compound (10 μM): cytokine cocktail (TNFα, IL1β, IFNγ, TFGβ) 10 ng·mL^−1, compound 10 μM, baseline = 1.00
Protocol: as §1, §2

[5] = test system: Bv.2 microglial cell line; assay: Nitrite production inhibition (Greiss colorimetric technique) in LPS-stimulated Bv.2 cells; conditions: LPS 2 μg·mL^−1, compound 10 μM; for Nitrite production, LPS or cytokines + Compound (10 μM): baseline = 1.00
Protocol: as §1, §2

[6] = test system: Nos2; assay: Nos2 expression inhibition (qPCR) in kidney explants from BB rat; conditions: kidney explant, 20 μM for 24 h
Protocol: (§3) Anti-inflammatory activity was determined using organotypic cultures or retinal and kidney explants from a murine model which develops type 1 or autoimmune diabetes mellitus spontaneously, i.e., BioBreeding (BB) rat. This animal model of type 1 diabetes mellitus reproduces disease progression in a manner similar to that occurring in patients. Tissues, retina, and kidney are extracted, maintaining cytoarchitecture and tissue connections of each of the organs, from BB rats that are 7 weeks old, which is the time before the presence of constant hyperglycemia, which appears around weeks 9-11 of life. A prediabetic model with active inflammatory parameters that resemble those occurring during the progression of type 1 diabetes mellitus in patients is thereby obtained. The cultured explants were treated with 3-(2,4-dihydroxyphenyl)phthalide (compound III) at a dose of 20 μM for 24 h.
(§4) Activation of the inflammatory process induces nitric oxide synthase, Nos2, gene expression, with messenger RNA quantification being determined by means of the quantitative PCR technique (qPCR), and can show inflammatory response modulation in retinal and kidney explants from an animal model with type 1 or autoimmune diabetes mellitus.

[7] = test system: Nos2; assay: Nos2 expression inhibition (qPCR) in retinal explants from BB rat; conditions: retinal explant, 20 μM for 24 h
Protocol: as §3, §4

[8] = 7 weeks old BB rat, untreated BB rat = 1.00

CCSCCc1cc(O)c(O)cc1C1OC(=O)c2ccccc21 (stereo not shown) [Compound II, 3-(4,5-dihydroxy-2-(2-ethylthio)ethylphenyl)phthalide] was tested, and the “% of reduction in nitrite production” value [1] was 18.82%, the “Nitrite production, LPS or cytokines + Compound (10 μM)” value (“Nitrite production … (10 μM)” below) [1] was 3.644 ± 0.004 and the cytotoxic effect ([2]; increasing doses for 24 h until the maximum concentration of 25 μM) was “no cytotoxic effect was detected”. The “% of reduction in nitrite production” value [3] was 79.88%, the “Nitrite production … (10 μM)” value [3] was 1.38 ± 0.43 and the “% of reduction in nitrite production” value [4] was 77.91%. For the same compound, the “Nitrite production … (10 μM)” value [4] was 1.788 ± 0.29, the “% of reduction in nitrite production” value [5] was 48.31% and the “Nitrite production … (10 μM)” value [5] was 1.98 ± 0.203.
O=C1OC(c2ccc(O)cc2O)c2ccccc21 (stereo not shown) [Compound III, 3-(2,4-dihydroxyphenyl)phthalide] was tested, and the “% of reduction in nitrite production” value [1] was 65.32%, the “Nitrite production … (10 μM)” value [1] was 1.48 ± 0.02 and the cytotoxic effect ([2]; increasing doses for 24 h until the maximum concentration of 50 μM) was “no cytotoxic effect was detected”. The “% of reduction in nitrite production” value [3] was 33.38%, the “Nitrite production … (10 μM)” value [3] was 3.60 ± 0.42 and the “% of reduction in nitrite production” value [4] was 83.14%. For the same compound, the “Nitrite production … (10 μM)” value [4] was 1.53 ± 0.06, the “Nos2 expression, BB rat + 3-(2,4-dihydroxyphenyl)phthalide (20 μM)” value [6, 8] was 0.348 ± 0.05 and the “% of reduction of Nos2 expression” value ([6]; BB rat) was 65.2%. For the same compound, the “% of reduction in nitrite production” value [5] was 62.92%, the “Nitrite production … (10 μM)” value [5] was 3.47 ± 0.27 and the “Nos2 expression, BB rat + 3-(2,4-dihydroxyphenyl)phthalide (20 μM)” value [7, 8] was 0.482 ± 0.05. The “% of reduction of Nos2 expression” value ([7]; BB rat) was 51.8%.
